Data on nine compounds can be found in US7276510B2, “HIV replication inhibitors” (Janssen Pharmaceutica, Inc., priority 2000, dated 2007).

Structures are written as SMILES. Like-named read-outs stand apart in the source and are kept apart here.

One data set relates to HIV-infected MT-4 cells. The data set is described as follows: Inhibition of the HIV-induced cytopathic effect in MT-4 cells (MTT). It is filed as cell-based. The settings on record: for IC50: HIV-infected MT-4 cells, MTT, OD 540 nm. The method, then: (§1) A rapid, sensitive and automated assay procedure was used for the in vitro evaluation of anti-HIV agents. An […] T4-cell line, MT-4, which was previously shown (Koyanagi et al., Int. J. Cancer, 36, 445-451, 1985) to be highly susceptible to and permissive for HIV infection, served as the target cell line. Inhibition of the HIV-induced cytopathic effect was used as the end point. The viability of both HIV- and mock-infected cells was assessed spectrophotometrically via the in situ reduction of 3-(4,5-dimethylthiazol-2-yl)-2,5-diphenyltetrazolium bromide (MTT). […] The percent protection achieved by the compound in HIV-infected cells was calculated by the following formula:
(§2) [formula] whereby (ODT)HIV is the optical density measured with a given concentration of the test compound in HIV-infected cells; (ODC)HIV is the optical density measured for the control untreated HIV-infected cells; (ODC)MOCK is the optical density measured for the control untreated mock-infected cells; all optical density values were determined at 540 nm. […] The ratio of CC50 to IC50 was defined as the selectivity index (SI).
A general note: Protection from cytopathic effect is a common read-out in antiviral testing.

Another data set deals with mock-infected MT-4 cells. The data set is described as follows: Cytotoxicity in mock-infected MT-4 cells (MTT). It is filed as cell-based. The conditions noted are these: read-out: CC50 (50% cytotoxic concentration), OD 540 nm. The method, then: as §1, §2
Data set [1] in a line: Cytotoxicity in mock-infected MT-4 cells (MTT). It is filed as cell-based. The settings on record: human, OD 540 nm. The method, then: as §1, §2
Where [2] appears, read: read-out: IC50 (50% inhibitory concentration; dose achieving 50% protection).

In the case of `CSc1nc(Nc2ccc(C#N)cc2)nc(Nc2c(C)cc(C)cc2C)n1` [Compound 20], the IC50 with HIV-infected MT-4 cells (setting [2]) was found to be 0.002 µM. The CC50 in the data set on mock-infected MT-4 cells stood at 3.98 µM.
The corresponding values for `Cc1cc(C)c(Oc2cc(C(F)(F)F)nc(Nc3ccc(C#N)cc3)n2)c(C)c1` [Compound 25] are 0.079 µM and greater than 100 µM.
Regarding `Cc1cc(C)c(Oc2nc(Nc3ccc(C#N)cc3)nc(C(N)=O)n2)c(C)c1` [Compound 26], in the data set with HIV-infected MT-4 cells (setting [2]), the IC50 came to 0.001 µM. Further, the CC50 in the data set with mock-infected MT-4 cells is 2 µM.
`COCc1cc(Oc2c(Br)cc(C#N)cc2Br)nc(Nc2ccc(C#N)cc2)n1` [Compound 27]: in the data set with HIV-infected MT-4 cells (setting [2]), the IC50 is 0.01 µM. The CC50 with mock-infected MT-4 cells is greater than 10 µM.
For the compound `N#Cc1ccc(Nc2nc(Cc3c(Cl)cccc3Cl)nc(N3C(=O)CCC3=O)n2)cc1` [Compound 48], the IC50 in the data set on HIV-infected MT-4 cells (setting [2]) is 0.0079 µM. Besides, the CC50 in the data set on mock-infected MT-4 cells was greater than 200 µM.
The matching figures for `CCOc1nc(Cc2c(Cl)cccc2Cl)nc(Nc2ccc(C#N)cc2)n1` [Compound 58]: 0.0251 µM and 50.1 µM.
The term melting point denotes the temperature of the solid-liquid transition. On to `COC(=O)c1cc(Oc2c(C)cc(C#N)cc2C)nc(Nc2ccc(C#N)cc2)n1` [Compound 71], for which the melting point was 258 to 259 °C (dec.). Also, in the data set with HIV-infected MT-4 cells (CC50/IC50 in MT-4 cells), the “SI (selectivity index, ratio of CC50 to IC50)” value was greater than 3984. Further, the IC50 in the data set with HIV-infected MT-4 cells (Human immunodeficiency virus 1, MT4, read-out: IC50 (50% inhibitory concentration; dose achieving 50% protection)) came out at 0.0251 µM. Moreover, the CC50 in data set [1] was greater than 100 µM.
As to `N#Cc1ccc(Nc2nc(Cl)nc(Nc3c(Cl)cc(Cl)cc3Cl)n2)cc1` [Compound 85], the IC50 in the data set on HIV-infected MT-4 cells (setting [2]) came out at 0.02 µM. The CC50 with mock-infected MT-4 cells worked out at 50.1 µM.
The matching figures for `Cc1cc(Cl)cc(Cl)c1Nc1nc(Cl)nc(Nc2ccc(C#N)cc2)n1` [Compound 109]: 0.00398 µM and 12.6 µM.
